Tested on: HCT116 colorectal cancer cells
Experiment: Cisplatin sensitization assay (96 h cell viability MTS);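 note: Test-compound concentration that lowers the Cisplatin IC50 by a set fold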
Format: cell-based
Settings: compound and Cisplatin added simultaneously, Cisplatin sensitization value
Outline: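 Viability read by MTS (1 h at 37° C) after 96 h co-exposure at 37° C, 5% CO2. Test compound and cisplatin were dosed simultaneously in a full concentration matrix, each 2-fold serially diluted from 10 μM final; sensitization values binned in μM.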

Compound | Cisplatin Sensitization Assay
Nc1nn2cc(F)cnc2c1C(=O)Nc1cncc(F)c1N1CCC(C(=O)N2CCNCC2)CC1 [I-G-12, 2-amino-6-fluoro-N-(5-fluoro-4-(4-(piperazine-1-carbonyl)piperidin-1-yl)pyridin-3-yl)pyrazolo[1,5-a]pyrimidine-3-carboxamide] | +++ (Cisplatin sensitization value of <0.02 μM)
Nc1nn2cc(F)cnc2c1C(=O)Nc1cncc(Cl)c1N1CCC(C(=O)N2CCN3CCC2C3)CC1 (centres unmarked) [I-G-69, N-(4-(4-(1,4-diazabicyclo[3.2.1]octane-4-carbonyl)piperidin-1-yl)-5-chloropyridin-3-yl)-2-amino-6-fluoropyrazolo[1,5-a]pyrimidine-3-carboxamide] | +++ (Cisplatin sensitization value of <0.02 μM)
Nc1nn2cc(F)cnc2c1C(=O)Nc1cnccc1-c1cccnc1 [I-C-15, N-([3,4′-bipyridin]-3′-yl)-2-amino-6-fluoropyrazolo[1,5-a]pyrimidine-3-carboxamide] | ++ (Cisplatin sensitization value>0.02 μM but <0.2 μM)
Nc1nn2cc(F)cnc2c1C(=O)Nc1cnccc1N1CCC(C(=O)N2CC3(COC3)C2)CC1 [I-G-88, N-(4-(4-(2-oxa-6-azaspiro[3.3]heptane-6-carbonyl)piperidin-1-yl)pyridin-3-yl)-2-amino-6-fluoropyrazolo[1,5-a]pyrimidine-3-carboxamide] | +++ (Cisplatin sensitization value of <0.02 μM)
Nc1nn2cc(F)cnc2c1C(=O)Nc1cncc(F)c1N1CCN2C(=O)CC[C@@H]2C1 [I-N-182, (R)-2-amino-6-fluoro-N-(5-fluoro-4-(6-oxohexahydropyrrolo[1,2-a]pyrazin-2(1H)-yl)pyridin-3-yl)pyrazolo[1,5-a]pyrimidine-3-carboxamide] | ++ (Cisplatin sensitization value>0.02 μM but <0.2 μM)
COC1CN(C(=O)C2CCN(c3ccncc3NC(=O)c3c(N)nn4cc(F)cnc34)CC2)C1 [I-G-78, 2-amino-6-fluoro-N-(4-(4-(3-methoxyazetidine-1-carbonyl)piperidin-1-yl)pyridin-3-yl)pyrazolo[1,5-a]pyrimidine-3-carboxamide] | +++ (Cisplatin sensitization value of <0.02 μM)
CN1CCOC2(CCN(c3ccncc3NC(=O)c3c(N)nn4cc(F)cnc34)CC2)C1 [I-N-183, 2-amino-6-fluoro-N-(4-(4-methyl-1-oxa-4,9-diazaspiro[5.5]undecan-9-yl)pyridin-3-yl)pyrazolo[1,5-a]pyrimidine-3-carboxamide] | +++ (Cisplatin sensitization value of <0.02 μM)
CN1CCC(C(=O)N2CC=C(c3c(F)cncc3NC(=O)c3c(N)nn4cc(F)cnc34)CC2)CC1 [I-C-38, 2-amino-6-fluoro-N-(5-fluoro-1′-(1-methylpiperidine-4-carbonyl)-1′,2′,3′,6′-tetrahydro-[4,4′-bipyridin]-3-yl)pyrazolo[1,5-a]pyrimidine-3-carboxamide] | ++ (Cisplatin sensitization value>0.02 μM but <0.2 μM)
CN(C)C(=O)C1CCCN(c2ccncc2NC(=O)c2c(N)nn3cc(F)cnc23)C1 (centres unmarked) [I-N-290, 2-amino-N-(4-(3-(dimethylcarbamoyl)piperidin-1-yl)pyridin-3-yl)-6-fluoropyrazolo[1,5-a]pyrimidine-3-carboxamide] | ++ (Cisplatin sensitization value>0.02 μM but <0.2 μM)
CN1CCN(CC2CCN(c3c(F)cncc3NC(=O)c3c(N)nn4cc(F)cnc34)CC2)C(=O)C1 [I-N-193, 2-amino-6-fluoro-N-(5-fluoro-4-(4-((4-methyl-2-oxopiperazin-1-yl)methyl)piperidin-1-yl)pyridin-3-yl)pyrazolo[1,5-a]pyrimidine-3-carboxamide] | +++ (Cisplatin sensitization value of <0.02 μM)
Nc1nn2cc(Cl)cnc2c1C(=O)Nc1cnccc1O[C@@H]1CCCNC1 [I-O-81, (R)-2-amino-6-chloro-N-(4-(piperidin-3-yloxy)pyridin-3-yl)pyrazolo[1,5-a]pyrimidine-3-carboxamide] | ++ (Cisplatin sensitization value>0.02 μM but <0.2 μM)
CNC1CN(C(=O)C2CCN(c3c(F)cncc3NC(=O)c3c(N)nn4cc(F)cnc34)CC2)C1 [I-G-34, 2-amino-6-fluoro-N-(5-fluoro-4-(4-(3-(methylamino)azetidine-1-carbonyl)piperidin-1-yl)pyridin-3-yl)pyrazolo[1,5-a]pyrimidine-3-carboxamide] | +++ (Cisplatin sensitization value of <0.02 μM)
CN(C)S(=O)(=O)C1CCN(c2c(F)cncc2NC(=O)c2c(N)nn3cc(F)cnc23)CC1 [I-N-146, 2-amino-N-(4-(4-(N,N-dimethylsulfamoyl)piperidin-1-yl)-5-fluoropyridin-3-yl)-6-fluoropyrazolo[1,5-a]pyrimidine-3-carboxamide] | +++ (Cisplatin sensitization value of <0.02 μM)
CN1CCC(C(=O)N2CCN(c3c(F)cncc3NC(=O)c3c(N)nn4cc(F)cnc34)CC2)CC1 [I-N-128, 2-amino-6-fluoro-N-(5-fluoro-4-(4-(1-methylpiperidine-4-carbonyl)piperazin-1-yl)pyridin-3-yl)pyrazolo[1,5-a]pyrimidine-3-carboxamide] | +++ (Cisplatin sensitization value of <0.02 μM)
Nc1nn2cc(F)cnc2c1C(=O)Nc1cncc(F)c1N1CCC(C(=O)N2CC(F)C2)CC1 [I-G-67, 2-amino-6-fluoro-N-(5-fluoro-4-(4-(3-fluoroazetidine-1-carbonyl)piperidin-1-yl)pyridin-3-yl)pyrazolo[1,5-a]pyrimidine-3-carboxamide] | +++ (Cisplatin sensitization value of <0.02 μM)
Nc1nn2cc(Cl)cnc2c1C(=O)Nc1cnccc1N1CCC(N2CCC23COC3)CC1 [I-N-109, N-(4-(4-(6-oxa-1-azaspiro[3.3]heptan-1-yl)piperidin-1-yl)pyridin-3-yl)-2-amino-6-chloropyrazolo[1,5-a]pyrimidine-3-carboxamide] | +++ (Cisplatin sensitization value of <0.02 μM)
CN(C)CCOc1cc(C(F)(F)F)ncc1NC(=O)c1c(N)nn2cc(Cl)cnc12 [I-O-71, 2-amino-6-chloro-N-(4-(2-(dimethylamino)ethoxy)-6-(trifluoromethyl)pyridin-3-yl)pyrazolo[1,5-a]pyrimidine-3-carboxamide] | + (Cisplatin sensitization value>0.2 μM but <5 μM)
Cc1ncn(-c2ccncc2NC(=O)c2c(N)nn3cc(F)cnc23)c1C [I-N-269, 2-amino-N-(4-(4,5-dimethyl-1H-imidazol-1-yl)pyridin-3-yl)-6-fluoropyrazolo[1,5-a]pyrimidine-3-carboxamide] | ++ (Cisplatin sensitization value>0.02 μM but <0.2 μM)
CN1CCCN(c2ccncc2NC(=O)c2c(N)nn3cc(Cl)cnc23)CC1 [I-N-43, 2-amino-6-chloro-N-(4-(4-methyl-1,4-diazepan-1-yl)pyridin-3-yl)pyrazolo[1,5-a]pyrimidine-3-carboxamide] | ++ (Cisplatin sensitization value>0.02 μM but <0.2 μM)
CN1CC(OC2CCN(c3ccncc3NC(=O)c3c(N)nn4cc(F)cnc34)CC2)C1 [I-N-164, 2-amino-6-fluoro-N-(4-(4-((1-methylazetidin-3-yl)oxy)piperidin-1-yl)pyridin-3-yl)pyrazolo[1,5-a]pyrimidine-3-carboxamide] | +++ (Cisplatin sensitization value of <0.02 μM)

Source: patent US11370798B2 (Vertex Pharmaceuticals Incorporated, priority 2012, dated 2022)
